From patent US8747537B2, “Ink containing heterocyclic azo dye, and dye for use in said ink” (Mitsubishi Chemical Corporation, priority 2010, dated 2014)

Assays:
[1] = Solubility test in low-polarity solvents (saturated solution, λmax, solubility, εC); assay type: physicochemical; conditions: for Solubility: saturated solution
Method: The solubility of each dye in n-decane, tetradecane, Isopar M, Isopar G, and decalin was examined in the following manner. Each dye was added to each solvent until a dissolution residue came to remain, and this mixture was subjected to a 30-minute ultrasonic treatment at 30 degrees. The resultant mixture was allowed to stand at 5° C. for 24 hours and then subjected to centrifugal filtration (centrifugal force, 5,200×g) with a 0.1-μm filter using a microcentrifuge. The saturated solution obtained was diluted to an adequate concentration, and the solubility of each dye was calculated from a relationship with an extinction coefficient determined beforehand. Furthermore, the value of the product of the molar extinction coefficient ε (Lmol^−1cm^−1) and the concentration C (molL^−1) of the saturated solution, εC, was determined.
Sudan Black B (manufactured by Tokyo Kasei Kogyo Co., Ltd.), which is a commercial oil-soluble black dye, was added to n-decane until a dissolution residue came to remain, and this mixture was subjected to a 30-minute ultrasonic treatment at 30 degrees. The resultant mixture was allowed to stand at 5° C. for 24 hours and then subjected to centrifugal filtration (centrifugal force, 5,200×g) with a 0.1-μm filter using a microcentrifuge. The saturated n-decane solution obtained was diluted to an adequate concentration, and the solubility of the dye was calculated from a relationship with an extinction coefficient determined beforehand.

[2] = Light fastness test (retention of dye after 2 hours of high-pressure mercury lamp irradiation); assay type: physicochemical; conditions: n-decane; 1 mg in 250 mL, 2 hours irradiation, 400-W high-pressure mercury lamp
Method: The light fastness of each dye was examined in the following manner. One milligram of each dye was dissolved in 250 mL of each of n-decane, tetradecane, Isopar M, and Isopar G, and the solution was irradiated with light for 2 hours using photoreaction apparatus UVL-400HA (400-W high-pressure mercury lamp), manufactured by Riko-Kagaku Sangyo Co., Ltd. During the irradiation, the vessel was cooled with a coolant to keep the internal temperature at 10-30° C. The retention of the dye was determined through the following calculation to evaluate the light fastness. Retention of dye=(absorbance at absorption-maximum wavelength after irradiation)/(absorbance at absorption-maximum wavelength before irradiation)

Question: With `CCCCC(CC)CN(CC(CC)CCCC)c1ccc(N=Nc2snc(CC)c2C#N)c(NC(C)=O)c1` (stereo not shown) [Dye 10] as the compound, how does the εC ([1]; Isopar G) read?
Answer: The εC was 18600 cm⁻¹.

Question: And the “λmax (absorption-maximum wavelength)” value ([1]; Isopar G solution)?
Answer: The value was 542 nm.

Question: And the Solubility ([1]; Isopar G)?
Answer: The Solubility was 20%.

Question: What about the εC ([1]; Isopar M) of the same compound?
Answer: The εC was 18600 cm⁻¹.

Question: What about the “λmax (absorption-maximum wavelength)” value ([1]; Isopar M solution) of the same compound?
Answer: The value was 542 nm.

Question: What about the Solubility ([1]; Isopar M) of the same compound?
Answer: The Solubility was 20%.

Question: And the εC ([1]; decalin)?
Answer: Its εC is 6600 cm⁻¹.

Question: What about the “λmax (absorption-maximum wavelength)” value ([1]; decalin solution) of the same compound?
Answer: The value was 546 nm.

Question: What about the Solubility ([1]; decalin) of the same compound?
Answer: The Solubility was 6.7%.

Question: What about the “εC (molar extinction coefficient × concentration of saturated solution)” value ([1]; n-decane) of the same compound?
Answer: The value was 17000 cm⁻¹.

Question: What about the “λmax (absorption-maximum wavelength)” value ([1]; n-decane solution) of the same compound?
Answer: The value was 543 nm.

Question: And the Solubility ([1]; n-decane, stood at 5° C. for 24 hours, 0.1-μm filter)?
Answer: Its Solubility is 20%.

Question: What about the εC ([1]; tetradecane) of the same compound?
Answer: The εC was 16700 cm⁻¹.

Question: And the “λmax (absorption-maximum wavelength)” value ([1]; tetradecane solution)?
Answer: Its value is 544 nm.

Question: And the Solubility ([1]; tetradecane)?
Answer: The Solubility was 19%.

Question: What about the “Light fastness: retention of dye” value [2] of the same compound?
Answer: Its value is 99%.
